One data set deals with T1, Human CB2 Receptor (Homo sapiens, UniProt P34972).
T1 construct: host or cells: Sf9 or HEK-293 cells (membranes)
The data set is described as follows: [35S]GTPγS-binding assay, hCB2. The class given is biochemical. As to conditions: GTPγS; for agonistic activity toward cannabinoid receptors (in words): hCB1 and hCB2. How it is done: (§1) Functional activity of compounds of the invention toward the cannabinoid receptors was determined by stimulation of [^35S]-GTPγS binding using membranes from HEK-293 cells expressing the hCB1 receptor and membranes expressing the hCB2 receptor derived from either Sf9 (PerkinElmer) or from HEK-293 cells. Activities were compared to that of the known cannabinoid full agonist CP55940 (Alexis). The purpose of this experiment is to determine the potency of the compounds of the invention as agonists or antagonists toward each of the receptor tested.
(§2) [^35S]-GTPγS binding reactions were performed at 30° C. in 96-well plates containing 5-10 μg membrane protein suspended in 0.1 ml binding buffer [20 mM HEPES-NaOH, pH 7.4, 5 mM MgCl2, 100 mM NaCl, 0.2% (w/v) bovine serum albumin] supplemented with 50 μM GDP and 0.06 nM-10 μM of the compound being tested. Binding was initiated by the addition of [^35S]GTPγS (0.3 nM final concentration). Incubations were performed for 90 minutes and were terminated by filtration on GF/C filter plates (PerkinEimer). Filters were washed ten times with ice-cold wash buffer (20 mM HEPES-NaOH, pH 7.4, 10 mM sodium pyrophosphate). Non-specific binding was measured in the presence of 15 μM GTPγS.
(§3) Assays were performed in duplicates. Data was analyzed by plotting on the X axis the log concentration against percent of specific [^35S]GTPγS binding out of basal [^35S]GTPγS binding on the Y axis, non-linear regression is then performed using GraphPad Prism, version 3.0 (GraphPad, San Diego, Calif.) to calculate the EC50 and Emax of the compound. The EC50 value represents the concentration at which there is 50% [^35S]GTPγS binding and the Emax value the upper plateau of the curve.

Another data set concerns the target T2, Human CB1 Receptor (Homo sapiens, UniProt P21554).
T2 construct: expressed in transfected cells; host or cells: HEK-293 cells (membranes)
The data set is described as follows: [35S]GTPγS-binding assay, hCB1. Conditions: NB = no binding; for Emax: upper plateau of curve. Format: biochemical. How it is done:
as §1, §2, §3

Data set [1] has as its system CB1 related cannabimimetic activity. The data set is described as follows: Safety: body temperature, catalepsy, spontaneous locomotor activity, elevated plus maze, sensitivity to touch. Format: in vivo, ICR male mice. Conditions: for adverse cannabimimetic activities in any of the parameters monitored: 2 mg/kg i.v. The protocol:
In the present study, impact of compounds of the invention on the central nervous system was measured by monitoring the body temperature, catalepsy and spontaneous locomotor activity of rodents. These activities are part of the Tetrad assays which are indicative, if all parameters are affected, of CB1 mediated activity. In addition, lack of CNS psychomimetic effect was assessed in the elevated plus maze model. Finally, sensitivity to touch was determined in order to evaluate peripheral CB1 related activity.
ICR male mice (average body weight 25 g, Harlan, Israel) were administered the compounds of the invention i.v. at a dose of 2 mg/kg and at a volume dose of 5 ml/kg. The psychoactive cannabinoid HU-210 was used as positive control at the 100-fold lower dose of 0.02 mg/kg i.v. The following measurements were made starting 15 minutes after compound administration. All tests were completed for each animal within approximately 10 minutes. Rectal temperature was monitored using a thermistor probe (YSI model 400, USA). Spontaneous locomotion was assessed using the open field methodology. The number of squares crossed by the animals were recorded and analyzed during a period of three minutes. At the end of the open field test, the animals were tested for catalepsy symptoms. This was carried out by gently forcing the animal to stand on its hind paws when its front paws are holding on an elevated beam. The time for the animal to step down of the beam was measured in seconds. A normal animal withdraws the beam immediately whereas cataleptic animal tend to stay on the beam. The longer the animal stays leaning on the beam, the more cataleptic the animal is. The behavior of the animals was then assessed in the elevated plus maze. The elevated plus maze consists of two open arms and two arms that are enclosed by high walls (arms 30×10 cm, wall height 20 cm). The elevated plus maze is usually elevated 80 cm above the floor. The mouse is placed on the maze head facing an open arm, and the time spent in the different compartments of the maze (open arms, closed arms and central area) are measured for the next 5 minutes. Results are expressed as percent of the time spent in the open arms, normal animals preferring to stay in the closed arms of the maze. Finally, animals were gently touched by an observer blinded for the treatment group and their sensitivity scored according to the following scale: 0 not sensitive, 1 sensitive and 2 highly sensitive. Results are expressed as average±SEM. At the end of the study, the animals were euthanized.

The subject of data set [2] is visceral pain writhing responses. The data set is described as follows: Visceral pain, acetic acid induced writhing responses. Format: in vivo, Male ICR mice. Conditions: Mus musculus, iv, single dose 2 mg/kg i.v., compared to untreated group; read-out: Percent Inhibition of Visceral Pain Writhing Responses. The protocol: Male ICR mice (average body weight 25 g, Harlan, Israel) were pretreated by i.v. injection at volume dose of 5 ml/kg of vehicle, control and test compounds at various doses. Other routes of administration were tested for selected compounds including i.m. or s.c. injections at volume dose of 2.5 ml/kg and p.o. gavage at volume dose of 5 ml/kg. Compounds were dissolved in CREMOPHOR®:Ethanol and diluted 1:20 in saline prior to injection or gavage. Compounds administered i.v. were injected fifteen minutes before pain induction, whereas compounds administered i.m., s.c. or p.o. were supplied thirty minutes before pain induction, unless otherwise indicated. Each treatment group, except for controls comprising at least 30 animals, was composed of at least 6 animals. Fifteen or thirty minutes after drug administration, depending on the route of administration, the mice were injected i.p. with 10 ml/kg of 0.6% acetic acid and the number of visceral pain related behaviors (writhing movements globally defined as WR, i.e. stretching, contractions of the abdomen accompanied by an elongation of the body and extension of the hind limbs) was counted over a period of 5 minutes, starting 5 minutes after the acetic acid administration. These visceral pain related behaviors were globally defined as writhing responses (WR). The results are expressed as mean number of writhing responses ±SEM. Data were analyzed using analysis of variance (ANOVA) followed by post-hoc Fisher test.

In data set [3] the test system is carrageenan induced inflammatory pain and paw edema. Put plainly: Inflammatory pain and paw edema induced by carrageenan. The class given is in vivo, Male Sprague Dawley rats. Conditions: Rattus norvegicus, ip; 10 mg/kg i.p., 3 hours after carrageenan, reduction in paw swelling; read-out: Percent Inhibition of Inflammatory Pain Responses, Edema. How it is done:
Male Sprague Dawley rats (average body weight 200 g, Harlan, Israel) were transiently sedated by placement on dry ice for the duration of the injections. Rats were injected subcutaneously, in the subplantar region of one (right) paw with 0.1 ml of 2% w/v λ Carrageenan in sterile saline. […] Test compounds were, unless otherwise stated, administered i.p. at initial single dose of 3, 10 or 20 mg/kg, and volume dose of 5 ml/kg, immediately after the carrageenan injection. Selected compounds were also tested p.o. following oral gavage. Vehicle and celecoxib treated animals were used as controls. Each treatment group comprised at least seven animals.
Before induction of inflammatory pain and three hours after injection, the animals reactions to pain stimuli were tested in two systems. The first stimulus was thermal and assessed by the Plantar Test according to Hargreaves, using Ugo Basile Model 7370. The scale was set to an intensity of 50 arbitrary units. The latency time till the animal lift a paw as a reaction to the thermal stimulus was recorded for both the inflamed and non-inflamed hind paws. The second stimulus was mechanical (tactile) and assessed using a Dynamic Plantar Sesthesiomether (Ugo Basile Model 73400-002). […] Finally, the impact on paw edema was assessed. Paw thickness was measured using a dial thickness gauge (Spring-dial, constant low pressure gauge, Mitutoyo, TG/L-1, 0.01 mm) and paw volume was measured using a plethysmometer (model #7150, Ugo Basile, Italy). At the end of the study, animals were euthanized.
The results are measured as the differences between the two hind paws at time 0 and 3 hours both as ALT, for the latency time in the thermal part of the study, and as ΔForce, for the mechanical part of the study. The paw volume is expressed as percent from vehicle treated animals. Results are expressed as mean±SEM for each treatment group and the differences among those groups are analyzed by analysis of variance (ANOVA) followed by post-hoc Tukey's test.
Results refer to i.p. treatment with 10 mg/kg. Results marked with one asterisk refer to a dose 3 mg/kg, whereas two asterisks refer to 20 mg/kg. Celecoxib is included as reference.

The mark [4] stands for this setting: Human CB2 Receptor, NB = no binding.
[5] abbreviates: Human CB2 Receptor, upper plateau of curve, NB = no binding.

T1 sequence (P34972 whole entry): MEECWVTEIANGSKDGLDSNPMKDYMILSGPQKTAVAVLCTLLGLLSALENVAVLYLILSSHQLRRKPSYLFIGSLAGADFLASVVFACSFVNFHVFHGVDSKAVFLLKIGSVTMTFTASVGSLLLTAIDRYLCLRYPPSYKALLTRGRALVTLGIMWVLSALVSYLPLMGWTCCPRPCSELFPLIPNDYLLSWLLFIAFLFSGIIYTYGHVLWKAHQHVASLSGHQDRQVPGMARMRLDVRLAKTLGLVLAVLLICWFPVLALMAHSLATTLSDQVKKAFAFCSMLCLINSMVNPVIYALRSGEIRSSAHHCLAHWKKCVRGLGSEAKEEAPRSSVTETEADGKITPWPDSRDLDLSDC
T2 sequence (P21554 whole entry): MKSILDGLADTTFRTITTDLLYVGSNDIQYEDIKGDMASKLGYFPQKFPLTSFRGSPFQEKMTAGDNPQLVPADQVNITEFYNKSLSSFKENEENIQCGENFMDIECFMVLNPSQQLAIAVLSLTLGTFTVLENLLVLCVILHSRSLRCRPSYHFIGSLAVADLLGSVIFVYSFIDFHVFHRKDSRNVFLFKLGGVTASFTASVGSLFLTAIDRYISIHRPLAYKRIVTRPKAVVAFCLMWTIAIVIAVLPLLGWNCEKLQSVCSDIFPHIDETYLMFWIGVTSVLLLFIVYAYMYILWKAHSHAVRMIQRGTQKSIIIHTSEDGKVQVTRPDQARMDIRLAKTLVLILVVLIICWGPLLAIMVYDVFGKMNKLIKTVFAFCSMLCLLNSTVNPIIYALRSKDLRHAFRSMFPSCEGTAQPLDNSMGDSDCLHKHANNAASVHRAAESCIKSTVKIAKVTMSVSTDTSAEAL

Turning to `CCCCCCC(C)(C)c1cc(O)c2c(c1)OC1C(O)CCCCC21` (single isomer, unassigned) [Compound C7S-30, 2-(,1-dimethylheptyl)-5,6,7,8,9,9a-hexahydro-4bH-10-oxa-benzo[α]azulen-4,9-diol], the EC50 on Human CB2 Receptor (setting [4]) was 1030 nM; on Human CB1 Receptor, more than 10000 nM. At Human CB2 Receptor (setting [5]), the “Emax (%)” value amounted to 66%.
Take `CCCCCCC(C)(C)c1ccc([C@@H]2C[C@H](O)CC[C@H]2CCCO)c(O)c1` [CP55940, reference compound]: the results for the Emax on Human CB2 Receptor (setting [5]) and at Human CB1 Receptor were 30 to 60% and 50 to 100%, respectively.
With `CCCCCCC(C)(C)c1cc(O)c2c3c(oc2c1)CC(C)(C)CC3` [Compound C6M-10, 3-(1,1-Dimethylheptyl)-7,7-dimethyl-6,7,8,9-tetrahydro-dibenzofuran-1-ol], the EC50 was found to be 25 nM on Human CB2 Receptor (setting [4]) and 5300 nM on Human CB1 Receptor. Also, the Emax at Human CB2 Receptor (setting [5]) worked out at 72%; at Human CB1 Receptor, 132%. Besides, at Human CB2 Receptor, the “agonistic activity toward cannabinoid receptors (in words)” value is recorded as “agonists specific toward the CB2 receptor”.
For `CCCCCCC(C)(C)c1cc(OC(=O)C=CC(=O)O)c2c(c1)OC1CC(C)(C)CCC21` (stereo not shown) [Compound C6S-37, But-2-enedioic acid mono-[3-(1,1-dimethylheptyl)-7,7-dimethyl-5a,6,7,8,9,9a-hexahydro-dibenzofuran-1-yl]ester] the same measures were 24 nM, 3970 nM, 44%, 102% and “agonists specific toward the CB2 receptor”.
In the case of `CCCCCCC(C)(C)c1cc(O)c2c(c1)OC1C2CCC(C)(C)C1O` (stereo not shown) [Compound C6S-8, 3-(1,1-dimethylheptyl)-7,7-dimethyl-5a,6,7,8,9,9a-hexahydro-dibenzofuran-1,6-diol], in data set [1], the “adverse cannabimimetic activities in any of the parameters monitored” value is on record as “None”. Moreover, the inhibition in vivo at 2 mg/kg in data set [2] turned out to be 37%.
`CCCCCCC(C)(C)c1cc(O)c2c(c1)OC1C(=NO)CCCC21` (stereo not shown) [Compound C6S-27, 7-(1,1-Dimethylheptyl)-9-hydroxy-2,3,4a,9b-tetrahydro-1H-dibenzofuran-4-one oxime]: the EC50 is 5560 nM at Human CB2 Receptor (setting [4]) and more than 10000 nM on Human CB1 Receptor. At Human CB2 Receptor (setting [5]), this compound returned a maximal effect (Emax) of 64%.
In the case of `CCCCCCC(C)(C)c1cc(OC)cc2oc3c(c12)CC(C)(C)CC3=O` [Compound C6M-7, 9-(1,1-dimethylheptyl)-7-methoxy-2,2-dimethyl-2,3-dihydro-1H-dibenzofuran-4-one], in data set [1], the “adverse cannabimimetic activities in any of the parameters monitored” value is “None”. Also, the inhibition in vivo at 10 mg/kg in data set [3] is 26%.
For `CCCCCCC(C)(C)c1cc(OCC(=O)N(CC)CC)c2c(c1)OC1C(O)CCCCC21` (stereo not shown) [Compound C7S-17, 2-[2-(1,1-Dimethylheptyl)-9-hydroxy-5,6,7,8,9,9a-hexahydro-4bH-10-oxa-benzo[ ]azulen-4-yloxy]-N,N-diethyl-acetamide], the rectal temperature in data set [1] (40 mg/kg i.v., 0.5 hr after injection) was found to be 37.84±0.62 °C. Moreover, the “rectal temperature below controls” value in data set [1] (40 mg/kg i.v., 0.5 hr after injection, not statistically significant) was “about 0.9 °C”. Also, in data set [1] (40 mg/kg i.v., three hours after injection), the “rectal temperature (in words)” value is listed as “back to baseline”.
Take `CCCCCCC(C)(C)c1cc(O)c2c(c1)OC1CCCCC(C(=O)O)C21` (stereo not drawn) [Compound C7S-31, 2-(1,1-Dimethylheptyl)-4-hydroxy-5,6,7,8,9,9a-hexahydro-4bH-10-oxa-benzo[α]azulen-5-carboxylic acid]: the concentration for a half-maximal effect (EC50) was 641 nM on Human CB2 Receptor (setting [4]) and more than 10000 nM at Human CB1 Receptor. At Human CB2 Receptor (setting [5]), the Emax stood at 54%.
As for `CC1(C)CCC2c3c(O)cc(C4(CCc5ccccc5)SCCS4)cc3OC2C1` (stereo not shown) [Compound C6S-38, 7,7-dimethyl-3-(2-phenethyl-[1,3]dithiolan-2-yl)-5a,6,7,8,9,9a-hexahydro-dibenzofuran-1-ol], the 50% effective concentration (EC50) on Human CB2 Receptor (setting [4]) is 184 nM; on Human CB1 Receptor, more than 10000 nM. The compound also displayed an Emax on Human CB2 Receptor (setting [5]) of 19%.
For `CCCCCCC(C)(C)c1cc(O)c2c(c1)OC(C)(C)[C@@H]1CC=C(CO)C[C@@H]21` [HU-210, reference compound], the less squares crossed result in data set [1] (0.02 mg/kg i.v.) is given as “more than 50%”. In data set [1] (0.02 mg/kg i.v., period of three minutes, vehicle 75.63±6.24), the “number of squares crossed (spontaneous locomotor activity)” value amounted to 32.33±10.21. The “drop of rectal temperature” value in data set [1] (0.02 mg/kg i.v., statistically significant) was “about 2 °C”. For the same compound, the “sensitivity to touch, average score” value in data set [1] (0.02 mg/kg i.v., scale 0 not sensitive, 1 sensitive, 2 highly sensitive) is on record as “above 1”. The rectal temperature in data set [1] (0.02 mg/kg i.v., vehicle 38.88±0.11° C.) was 36.73±0.29 °C. Further, the “time spent in the open arms of the elevated plus maze” value in data set [1] (0.02 mg/kg i.v., vehicle about 15%) is listed as approximately 41%.

The values above are taken from patent US20090054376A1, “BENZOFURAN DERIVATIVES WITH THERAPEUTIC ACTIVITIES” (Pharmos Corporation, priority 2005, published 2009).
